Paper PMC8041284, “Tunable Methacrylamides for Covalent Ligand Directed Release Chemistry” (Journal of the American Chemical Society, 2021)
Where two headings read alike, the source gives them in different places. Where no end group is shown, it is not given here.

Target: BTK (Homo sapiens, UniProt Q06187)
Experiment: biochemical
[1] = read-out: BTK inhibition (%), 0.75 uM BTK, […] probe 3l, 15 min preincubation

BTK, sequence (Q06187 402-655 limits assumed): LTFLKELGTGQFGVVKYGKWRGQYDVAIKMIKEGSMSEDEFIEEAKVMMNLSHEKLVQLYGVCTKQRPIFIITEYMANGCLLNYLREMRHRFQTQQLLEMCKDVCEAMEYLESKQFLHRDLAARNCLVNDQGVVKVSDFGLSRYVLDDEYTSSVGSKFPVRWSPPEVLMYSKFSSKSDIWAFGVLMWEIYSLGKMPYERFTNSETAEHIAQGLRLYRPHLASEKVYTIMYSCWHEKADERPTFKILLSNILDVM

Compound	inhibition at 10 µM [1] [%]	inhibition at 10 µM (read-out: BTK inhibition (%)) [%]
CCCCNc1ncc2c(-c3ccc(CN4CCN(C)CC4)cc3)cn(C3CCC(O)CC3)c2n1 (centres unmarked) [PCM-0215532]	55.9	–
NCC(O)c1ccc(O)cc1 (centres unmarked) [PCM-0064912]	2.3	–
Cc1ccccc1CN1C2=NCCN2C(=O)C2=C1CCN(Cc1ccccc1)C2 [PCM-0095783]	-19.3	–
O=C1c2c(O)ccc(O)c2C(=O)c2c(NCCNCCO)ccc(NCCNCCO)c21 [PCM-0065547]	51	–
NS(=O)(=O)c1cc(Cl)c(Cl)c(S(N)(=O)=O)c1 [PCM-0086380]	-4.7	–
COC(=O)[C@@]1(C)CC[C@]2(C(=O)O)CC[C@]3(C)C(=CC[C@@H]4[C@@]5(C)C[C@H](O)[C@H](O)[C@@](C)(CO)[C@@H]5CC[C@]43C)[C@@H]2C1 [PCM-0216474]	-0.8	–
N#Cc1ccc(COC[C@H]2O[C@@H](n3c(NCc4ccc(Cl)c(Cl)c4)nc4c(N)ncnc43)[C@H](O)[C@@H]2O)cc1 [PCM-0215474]	7.7	–
Cc1[nH]c(/C=C2\C(=O)Nc3ccc(F)cc32)c(C)c1C(=O)NCCN1CCCC1 [PCM-0216233]	18.7	–
C/C=C1\[C@H]2C=C(C)C[C@]1(N)c1ccc(=O)[nH]c1C2 [PCM-0091027]	-24.7	–
COc1cc(CO)ccc1O [PCM-0215042]	0	–
CO/N=C(\C(=O)N[C@@H]1C(=O)N2C(C(=O)OCOC(=O)C(C)(C)C)=C(C)CS[C@H]12)c1csc(N)n1 [PCM-0216124]	-4.7	–
C=CC(=O)Nc1cccc(Nc2nc(Nc3ccc(NC4CN(CCF)C4)cc3OC)ncc2C(F)(F)F)c1 [PCM-0215208]	91	–
CC[C@H](C)C(=O)O[C@H]1C[C@@H](C)C=C2C=C[C@H](C)[C@H](CC[C@@H]3C[C@@H](O)CC(=O)O3)[C@H]21 [PCM-0086045]	9.3	–
CO[C@H]1C(=O)[C@]2(C)[C@@H](OC)C[C@H]3OC[C@@]3(OC(C)=O)[C@H]2[C@H](OC(=O)c2ccccc2)[C@]2(O)C[C@H](OC(=O)[C@H](O)[C@@H](NC(=O)OC(C)(C)C)c3ccccc3)C(C)=C1C2(C)C [PCM-0214715]	-14.8	–
CCCCC[C@](C)(O)/C=C/[C@@H]1[C@@H](C/C=C\CCCC(=O)O)[C@@H](O)C[C@H]1O [PCM-0216577]	-3.9	–
FC(F)(F)Oc1ccc2nc(-c3ccc(OCCOCCOc4ccc(-c5nc6ccc(OC(F)(F)F)cc6[nH]5)nc4)cn3)[nH]c2c1 [PCM-0215500]	32.4	–
COc1cc(Br)c(Nc2nc(-c3c(C)nc4ncccn34)cs2)c(Br)c1 [PCM-0095777]	–	34
Cc1c(C(=O)Nc2ccc(Oc3ccnc4[nH]cc(-c5ccccc5)c34)c(F)c2)c(=O)n(-c2ccc(F)cc2)n1C [PCM-0215493]	95.9	–
FC(F)c1nc2ccccc2n1-c1nc(N2CCOCC2)nc(N2CCOCC2)n1 [PCM-0095021]	16.6	–
O=S(=O)(O)c1ccc2cc(N=Nc3cc(S(=O)(=O)O)c4cccnc4c3O)ccc2c1 [PCM-0215685]	54.1	–
CCS(=O)(=O)c1cccc(-c2cc(C(=O)NC3CCN(C)CC3)c(C)c3[nH]c4ncc(C)cc4c23)c1 [PCM-0095437]	93.1	–
C[C@H](CN(C)C)Oc1nc(Nc2cc3cccc(Cl)c3cn2)cnc1C#N [PCM-0215773]	-3.4	–
Cn1cc(C2=C(c3cn(C4CCN(Cc5ccccn5)CC4)c4ccccc34)C(=O)NC2=O)c2ccccc21 [PCM-0094982]	10.3	–
CC1(C)Cc2c(sc(NC(=O)c3ccn[nH]3)c2C(N)=O)C(C)(C)O1 [PCM-0216042]	1.5	–

Compound	inhibition at 10 µM [1] [%]	inhibition at 10 µM (read-out: BTK inhibition (%)) [%]
CCC(C)C(=O)O[C@@H]1[C@@H](OC(C)=O)[C@]2(C)[C@H](C(C)=O)CC[C@@]23O[C@]32CC[C@H]3C[C@@H](O[C@H]4C[C@@H](OC)[C@H](O[C@@H]5O[C@H](C)[C@@H](O)[C@@H](OC)[C@H]5O)[C@@H](C)O4)CC[C@]3(C)[C@@H]12 (some centres unmarked) [PCM-0216595]	-11.6	–
Clc1ccc(C(Cn2ccnc2)OCc2c(Cl)cccc2Cl)c(Cl)c1 (centres unmarked) [PCM-0085849]	38.9	–
CO[C@H]1/C=C\C=C(/C)C(=O)NC2=CC(=O)C(NCCN(C)C)=C(C[C@@H](C)C[C@H](OC)[C@H](O)[C@@H](C)/C=C(\C)[C@@H]1OC(N)=O)C2=O [PCM-0094961]	28.3	–
COc1ccc(S(=O)(=O)Nc2cccnc2Nc2ccc(O)cc2)cc1 [PCM-0095016]	-14.5	–
CCOC(=O)c1cnc2ccc(-c3cncc(NS(=O)(=O)c4ccccc4)c3)cn12 [PCM-0215311]	-4.1	–
O=CC1OC(=O)c2cc(O)c(O)c(O)c2-c2c(cc(O)c(O)c2O)C(=O)OC1C1OC(=O)c2cc(O)c(O)c(O)c2-c2c(O)c(O)c3oc(=O)c4c(c(O)c(O)c5oc(=O)c2c3c54)-c2c(cc(O)c(O)c2O)C(=O)OCC1O (centres unmarked) [PCM-0216414]	27	–
Oc1cc2c(cc1O)[C@@H]1c3ccc(O)c(O)c3OC[C@]1(O)C2 [PCM-0094861]	-15.6	–
Cc1cc(-c2ccc(CC(=O)Nc3ccc(-c4cccnc4)cc3)cc2)ccn1 [PCM-0095743]	-11.6	–
O=C(c1cccc(Cl)c1F)N1CCN(Cc2cccc(Nc3nccs3)n2)CC1 [PCM-0215281]	68.3	–
C[C@H](CC(=O)C[C@@H](C)[C@H]1C[C@H](O)[C@@]2(C)C3=C(C(=O)C[C@]12C)[C@@]1(C)CCC(=O)C(C)(C)[C@@H]1C[C@@H]3O)C(=O)O [PCM-0214862]	-6.2	–
CCCCCCC(=O)O[C@H]1CC[C@H]2[C@@H]3CCC4=CC(=O)CC[C@]4(C)[C@H]3CC[C@]12C [PCM-0214913]	–	6.2
CC1=C(C/C=C(\C)CCC[C@H](C)CCC[C@H](C)CCCC(C)C)C(=O)c2ccccc2C1=O [PCM-0216261]	7.8	–
CCC1=C[C@@H]2CN(C1)Cc1c([nH]c3ccccc13)[C@@](C(=O)OC)(c1cc3c(cc1OC)N(C)[C@H]1[C@@](O)(C(=O)OC)[C@H](OC(C)=O)[C@]4(CC)C=CCN5CC[C@]31[C@@H]54)C2 [PCM-0214792]	14	–
CN[C@@H](C)C(=O)N[C@H](C(=O)N1CCC[C@H]1c1nc(C(=O)c2ccc(F)cc2)cs1)C1CCCCC1 [PCM-0215366]	-11.6	–
CN(NC(=O)CC(=O)NN(C)C(=S)c1ccccc1)C(=S)c1ccccc1 [PCM-0094978]	-6.9	–
O=c1cc(-c2ccc(O)cc2)oc2cc(O)c(O)c(O)c12 [PCM-0216408]	70.3	–
CCOC(=O)C1=C(C)NC(C)=C(C(=O)OCC)C1c1ccccc1/C=C/C(=O)OC(C)(C)C [PCM-0085989]	16.3	–
NC(=O)CCCSc1nc(N)nc(-c2c(Cl)cc3c4c(cccc24)COC3)n1 [PCM-0095776]	-2.3	–
CC(=O)SCC(Cc1ccccc1)C(=O)NCC(=O)OCc1ccccc1 (centres unmarked) [PCM-0086128]	3.1	–
c1ccc(-c2ccc(C(c3ccccc3)n3ccnc3)cc2)cc1 (centres unmarked) [PCM-0086296]	33.5	–
CN(C)Cc1cccc(N=C(c2ccccc2)c2c(O)[nH]c3cc(C(N)=O)ccc23)c1 [PCM-0095090]	5.5	–
NC(=O)c1cccnc1 [PCM-0085961]	12.5	–
O=C(O)/C=C/c1cccc(O)c1 [PCM-0216210]	-3.1	–
CC(C)(C)NC(=O)c1cncn1C1CCN(c2ccc(-c3nnc(C(F)(F)F)o3)cn2)CC1 [PCM-0215700]	-12.4	–

Compound	inhibition at 10 µM [1] [%]	inhibition at 10 µM (read-out: BTK inhibition (%)) [%]
C[C@]12C[C@@H](O)[C@@H]3C[C@@]1(O[C@@H]1O[C@H](CO)[C@@H](O)[C@H](O)[C@H]1O)[C@]3(COC(=O)c1ccccc1)C(=O)O2 [PCM-0216349]	-12.4	–
CC#Cc1cncc(-c2ccc3c(c2)[C@@]2(N=C(C)C(N)=N2)C2(CCC(OC)CC2)C3)c1 (some centres unmarked) [PCM-0215755]	0	–
CCS(=O)(=O)Nc1ccc(Oc2ccc(F)cc2F)c(-c2cn(C)c(=O)c3[nH]ccc23)c1 [PCM-0214596]	16.2	–
Cc1ccc(C(=O)Nc2ccc(CN3CCN(C)CC3)c(C(F)(F)F)c2)cc1C#Cc1cnc2[nH]ncc2c1 [PCM-0215209]	114	–
COc1ccc(O)cc1 [PCM-0090031]	12.5	–
C=CC(=O)Nc1cccc(C)c1Nc1ncc2cc(-c3c(Cl)c(OC)cc(OC)c3Cl)ccc2n1 [PCM-0215508]	100	–
Cc1c(Cl)c(OCC(=O)N2CCN(C)CC2)nc2sc(C(=O)NC3CC3)c(N)c12 [PCM-0215380]	-10.8	–
CC1(C)CC[C@]2(C(=O)O)[C@H](O)C[C@]3(C)C(=CC[C@@H]4[C@@]5(C)C[C@H](O)[C@H](O)[C@@](C)(CO)[C@@H]5CC[C@]43C)[C@@H]2C1 [PCM-0216296]	-10.8	–
O=C(O)C(=O)c1cn(Cc2ccccc2)c2ccc(-c3ccc(OC(F)(F)F)cc3)cc12 [PCM-0215526]	34	–
COc1cc(O)cc2c1C(=O)C[C@@H](c1ccccc1)O2 [PCM-0214998]	-12.5	–
O=C(Nc1ccc(O)cc1)c1ccccc1O [PCM-0214902]	-10.9	–
NC(=O)CC[C@@H](N)C(=O)O [PCM-0095186]	6	–
COc1ccc(S(=O)(=O)N(C(C)=O)c2ccccc2/C=C/c2cc[n+]([O-])cc2)cc1 [PCM-0095165]	-18.6	–
CCCCCCCCCC=O [PCM-0216148]	-10	–
O=C1C2=C(CCN(Cc3ccccc3)C2)N2CCN=C2N1Cc1ccc(C(F)(F)F)cc1 [PCM-0215923]	2.3	–
CCCCCCC[C@H](O)CC(=O)CCc1ccc(O)c(OC)c1 [PCM-0216329]	-41.7	–
O=C1Cc2cc(CCN3CCN(c4nsc5ccccc45)CC3)c(Cl)cc2N1 [PCM-0065598]	52.1	–
RKDVY [PCM-0214887]	4.8	–
COc1cc(N2CCC(N3CCN(C)CC3)CC2)ccc1Nc1ncc(Cl)c(Nc2ccccc2S(=O)(=O)C(C)C)n1 [PCM-0094890]	88.5	–
COC(=O)C1=C(C)NC(C)=C(C(=O)OC)C1c1ccccc1[N+](=O)[O-] [PCM-0064767]	14	–
O=C(O)c1cn(C2CC2)c2cc(Cl)c(F)cc2c1=O [PCM-0216105]	7.7	–
CC(=O)Oc1c(C)c(C)c2c(c1C)CC[C@@](C)(CCC[C@H](C)CCC[C@H](C)CCCC(C)C)O2 [PCM-0215944]	0	–
NC[C@H](CC(=O)O)c1ccc(Cl)cc1 [PCM-0095558]	-12.8	–
